Common to all, as to test: inhibition of tumour cell growth, NCI panel, 48 h
Experiment [1] has as its system HT29 colon.
The subject of experiment [2] is OVCAR-5 ovarian.
The test system of experiment [3] is SNB-75 CNS.
Experiment [4] deals with SW-620 colon.
Experiment [5] deals with KM12 colon.
Experiment [6] has as its system A549 NSCLC.
In experiment [7] the test system is M14 melanoma.
The test system of experiment [8] is UACC-257 melanoma.
Experiment [9] has as its system BT-549 breast.

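Step 1: Grow cells in 96-well plates. Step 2: Expose to compound for 48 hours at 5 concentrations. Step 3: Interpolate endpoints linearly; if unreached, use highest concentration. Here, GI50 denotes the concentration required for 50% inhibition of growth. TGI marks complete inhibition of growth.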

Here are results for 15 compounds from PubChem BioAssay (NCI).

As to `Cc1ccc2c(c1)CNc1ccc(C)cc1CN2`, the TGI in experiment [1], in [2], in [3], in experiment [4], in experiment [5] and in experiment [6] was over 100 µM each time. The same compound displayed a TGI in experiment [7] of over 100 µM.
Consider `CC1(O)CCC2(C#N)CCC1C2O` (centres undefined), for which the TGI in experiment [1], in experiment [2], in experiment [3], in experiment [5], in experiment [6] and in [7] was over 100 µM in each case. Besides, the TGI in [8] was over 100 µM.
With `Cc1ccc(Sc2sc(-c3ccccc3)nc2[P+](c2ccccc2)(c2ccccc2)c2ccccc2)cc1`, the GI50 in [1] was 237 nM; in experiment [2], 400 nM; in experiment [3], 210 nM; in experiment [4] it was 319 nM; in experiment [9], 320 nM; in experiment [5], 314 nM. Also, the GI50 in experiment [7] was 326 nM; in [8], 328 nM. Besides, the TGI in [1] is 1.17 µM; in experiment [2] it was 1.45 µM; in experiment [3] it was 0.759 µM; in [4] it was 1.26 µM; in [9], 1180 nM; in experiment [5] it was 1.09 µM. The TGI in [7] came to 1.3 µM; in experiment [8], 1.11 µM.
With `C=CCn1cc(C(=O)NC(=O)NCCCCCOC(=O)CCCCCCCCCCC(=O)OCCCCCNC(=O)NC(=O)c2cn(CC=C)c(=O)n(C)c2=O)c(=O)n(C)c1=O`, the TGI in experiment [1], in experiment [2], in experiment [3], in experiment [4], in [5] and in experiment [6] was over 100 µM in each case. For the same compound, the TGI in experiment [7] and in [8] was over 100 µM throughout.
Turning to `Cc1c2c(cc3c(=O)ccn(CCN(C)C)c13)c(=O)ccn2CCN(C)C`, the TGI in experiment [2] amounted to 42.3 µM; in [3] it was 25.6 µM; in experiment [4], 20.5 µM; in [5], 13.9 µM; in [6] it was 48.9 µM; in [7], 25 µM. Further, the TGI in experiment [8] was 33.7 µM.
In the case of `N#C/C(=C\c1ccc(C(O)P(=O)(O)O)cc1)C(N)=O` (centres undefined), the TGI in experiment [1], in experiment [4], in experiment [5], in experiment [6], in [7] and in experiment [8] was over 100 µM each time.
In the case of `c1ccc(COC2(OCc3ccccc3)CC3OC2C2NN=NC32)cc1` (centres undefined), the TGI in experiment [1] is 46.5 µM; in experiment [2] it was over 100 µM; in experiment [3], 42.3 µM; in experiment [4], 33.6 µM; in experiment [5], 80.7 µM; in experiment [6], over 100 µM. Besides, the TGI amounted to 39.4 µM in [7] and 36.2 µM in [8].
Consider `COc1cc2c(cn1)[nH]c1ccccc12`, for which the TGI in experiment [1], in [2], in experiment [3], in [4], in experiment [5] and in experiment [6] was over 100 µM in each case. The TGI in experiment [7] and in experiment [8] was over 100 µM throughout.
Consider `NNC(=O)/C(NC(=O)c1ccccc1)=C(\N)c1ccc(Cl)cc1`, for which the TGI in experiment [1], in experiment [2], in experiment [3], in [4], in experiment [5] and in [6] was over 100 µM each time. In addition, the TGI in experiment [7] and in experiment [8] was over 100 µM in each case.
In the case of `CC1C(=O)O[C@H]2C1CC[C@@]1(C)[C@H](O)CC[C@@]13C[C@]2(O)OO3` (some centres undefined), the TGI in experiment [1], in experiment [2], in experiment [4], in [6], in experiment [7] and in experiment [8] was over 100 µM throughout.
`COc1ccc(-c2c(N)[n+]([O-])c3ccccc3[n+]2[O-])cc1OC`: the TGI in [1], in experiment [2], in experiment [3], in experiment [4], in experiment [5] and in experiment [6] was over 100 µM in each case. For the same compound, the TGI in experiment [7] and in experiment [8] was over 100 µM in each case.
Take `O=C(c1ccc(Cl)cc1)c1ccc(OCCSCCCCCCCCCCSCCOc2ccc(C(=O)c3ccc(Cl)cc3)cc2)cc1`: the TGI in experiment [1], in experiment [2], in experiment [3], in experiment [4], in experiment [5] and in [6] was over 100 µM in each case. Further, the TGI in experiment [8] was over 100 µM.
With `COc1cc2c(c(OC)c1OC)-c1ccc(OC)c(=O)cc1[C@@H](N(C)C=O)CC2`, the TGI in experiment [1] is over 100 µM; in [2], over 100 µM; in [3] it was 0.615 µM; in [4], over 100 µM; in experiment [5], 0.747 µM; in [6], over 100 µM. Moreover, the TGI in experiment [7] is over 65.6 µM; in [8], over 100 µM.
As for `NC(=O)c1ccc2nc3c(n2c1)C(=O)C(=O)c1ccccc1-3`, the GI50 in [1] was 2400 nM; in [2] it was 1720 nM; in experiment [3], 1560 nM; in experiment [4], 1880 nM; in experiment [9] it was 1360 nM; in experiment [5] it was 1390 nM. Further, the GI50 is 2180 nM in experiment [6], 381 nM in [7] and 570 nM in experiment [8]. In addition, the TGI in [1] is 6.01 µM; in [2] it was 3.15 µM; in [3], 2.92 µM; in [4], 4.05 µM; in experiment [9], 2650 nM; in experiment [5] it was 2.97 µM. Besides, the TGI was determined as 4.48 µM in experiment [6], 1.23 µM in [7] and 1.78 µM in experiment [8].
`CC/C=C/c1cc2cc[nH]c2c2c1C(C)C[C@@H]2C` (some centres undefined): the TGI in [1] is 82.2 µM; in experiment [3], 70.1 µM; in experiment [4], 94.8 µM; in experiment [5] it was 40.8 µM; in experiment [6] it was over 100 µM; in experiment [7], 74.9 µM. The same compound displayed a TGI in experiment [8] of over 100 µM.
